Patent publication US11964990B2, “1,3,4,7-tetrahydro-2H-pyrrolo[3′,2′:5,6]pyrido[2,3-b][1,4]oxazepine bcl-2 inhibitors” (AbbVie Inc., priority 2022, dated 2024)
Values joined by “and” are separate entries in the source; they are usually repeats but may differ in a detail not shown here. Equal values may be shown once. Read-outs that look alike come from different tables or passages of the source.

How the values were obtained:
RS4;11 cells = experiment: Cell viability assay (CellTiter-Glo) in RS4;11 cell line; format: cell-based; conditions: 24 hours, 10% Human Serum, 50% decrease in cell viability
In short: (§1)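 RS4;11 or Molt-4 cells (3000 per well) in RPMI 1640 with 10% human serum treated with compound for 24 h, 5% CO2. Viability measured by CellTiter-Glo as percent of control; EC50 from sigmoidal dose-response curves.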

Molt-4 cells = experiment: Cell viability counter screen assay (CellTiter-Glo) in Molt-4 cells; format: cell-based; conditions: 24 hours, 10% Human Serum, 50% decrease in cell viability
In short: as §1

[1] = Bioavailability study: pharmacokinetics after single intravenous or oral dose in mouse; format: in vivo; conditions: for Vd: read-out: VSS
Method: Studies were conducted to evaluate the pharmacokinetic profiles of Example 25 herein and Example 2 in WO 2019/040550 after single intravenous or oral dose in mouse. CD-1 mice (male) were obtained from Charles River Laboratories (Wilmington, MA).
The pharmacokinetics of Example 25 herein and Example 2 in WO 2019/040550 were evaluated following single 1 mg/kg intravenous or oral doses in mouse. Example 25 herein and Example 2 in WO 2019/040550 were prepared as a solution in DMSO: Tween 80: PEG-400: Dextrose 5% in Water (5:5:20:70, v/v) for the IV and oral dose mouse studies. The intravenous dose was administered as a slow bolus to the penile vein under isoflurane anesthesia. The oral doses were administrated by gavage. Serial blood samples were obtained […], 0.25, 0.5, 1.0, 4, 6, 9, 12, 24, 32 and 48 hours post dosing and […]. Plasma was separated by centrifugation and stored frozen (<−15° C.) until analysis.
HPLC-MS/MS bioanalytical methods were utilized for the quantitation of Example 25 herein and Example 2 in WO 2019/040550 concentration in plasma. The analytical methods used protein precipitation to extract compound from plasma. All samples were combined with a minimum two volume equivalents of organic solvent containing internal standard, vortexed and then centrifuged to pellet the proteins. Supernatants were used for subsequent analysis by liquid chromatography-tandem mass spectrometry (LC-MS/MS). Studies involving quantitative analysis employed spiked standards in plasma that were processed simultaneously with the samples.
Analytes were separated using reverse phase chromatography on a C8 or C18 column prior to analysis on an API5500™ (or higher) mass spectrometer with a Turbo-Ion Spray source. Peak areas were determined using Sciex Analyst™ 1.6 (or higher) software or Sound Analytics DiscoveryQuant™ 2.0 (or higher) software. Actual concentrations (when required) were calculated by regression analysis of the peak area ratio (parent/internal standard) of the spiked standards versus concentrations.
Peak plasma concentrations (Cm) and the time to peak plasma concentration (Tmax) were determined directly from the plasma concentration data for each animal. The compound plasma concentration data were submitted to multi-exponential curve fitting using WinNonlin software. The area under the plasma concentration-time curve from 0 to t hours after dosing (AUC0-t, t=time of the last measurable plasma concentration) was calculated using the linear trapezoidal rule. The residual area extrapolated to infinity, determined as the final measured plasma concentration (Ct) divided by the terminal plasma elimination rate constant (β), was added to the AUC0-t to produce the total area under the curve (AUC0-∞). The apparent total plasma clearance (CLp) was calculated by dividing the administered dose by the AUC0-∞. Half-life (t1/2) was determined with the following calculation: t1/2=ln (2)/elimination rate constant. The initial volume of distribution (Vc) was calculated as the dose divided by the extrapolated concentration at time=0 (C0). The volume of distribution at steady state, Vss, was estimated as a product of the total plasma clearance (CLp) and the mean residence time (MRT); the terminal-phase volume of distribution, Vβ, was derived from the total plasma clearance value (CLp) divided by the terminal plasma elimination rate constant (β). Oral bioavailability (F) was calculated as the dose-normalized AUC0-∞ (AUC0-∞/D) from the oral dose divided by the corresponding dose normalized AUC0-∞ from intravenous dosing.

[2] = male, CD-1, mouse, plasma, iv, 1 mg/kg, IV 1 mg/kg, individual animal
[3] = male, CD-1, mouse, plasma, iv, 1 mg/kg, IV 1 mg/kg, mean
[4] = male, CD-1, mouse, plasma, po, 1 mg/kg, PO 1 mg/kg, individual animal
[5] = male, CD-1, mouse, plasma, po, 1 mg/kg, PO 1 mg/kg, mean

For `CO[C@@H]1CC[C@@H](CNc2ccc(S(=O)(=O)NC(=O)c3ccc(N4CCN5CC6=C(c7ccc(Cl)cc7)CC(C)(C)C[C@H]6OCCCOC[C@@H]5C4)cc3N3CCCOc4nc5[nH]ccc5cc43)cc2[N+](=O)[O-])OC1` [Example 25, 4-((4aS,10aR)-14-(4-chlorophenyl)-12,12-dimethyl-1,2,4a,5,8,9,10a,11,13,15-decahydro-7H,12H-benzo[f]pyrazino[2,1-c][1,8]dioxa[4]azacycloundecin-3(4H)-yl)-2-(3,4-dihydro-2H-pyrrolo[3′,2′:5,6]pyrido[2,3-b][1,4]oxazepin-1(7H)-yl)-N-((4-((((2S,5R)-5-methoxytetrahydro-2H-pyran-2-yl)methyl)amino)-3-nitrophenyl)sulfonyl)benzamide], the EC50 (RS4;11 cells) was 0.00179 µM, the EC50 (Molt-4 cells) was 1.28 µM and the Vβ ([1]; IV 1 mg/kg, plasma, individual animal) was 0.95 L/kg and 1.0 L/kg and 0.90 L/kg. For the same compound, the Vβ ([1]; IV 1 mg/kg, plasma, mean) was 0.96 L/kg, the Tmax ([1]; male, CD-1, PO 1 mg/kg, plasma, individual animal) was 4 h and the AUC [1, 2] was 15.8 µg·h/mL. It also gave a C0 [1, 2] of 4.01 µg/mL, an MRT [1, 2] of 12 h and a half-life [1, 2] of 10 h. It also gave an AUC [1, 3] of 13.3 µg·h/mL, a C0 [1, 3] of 4.16 µg/mL and an MRT [1, 3] of 11 h. It also gave a clearance ([1]; male, CD-1, mouse, plasma, iv, 1 mg/kg, IV 1 mg/kg, plasma, individual animal, read-out: CLP (converted)) of 0.063 L/h/kg, a Vd ([1]; male, CD-1, mouse, plasma, iv, 1 mg/kg, IV 1 mg/kg, plasma, individual animal) of 0.78 L/kg and a Vd ([1]; male, CD-1, mouse, plasma, iv, 1 mg/kg, IV 1 mg/kg, plasma, mean) of 0.82 L/kg. The AUC [1, 4] was 3.58 µg·h/mL, the Cmax [1, 4] was 0.21 µg/mL and the half-life [1, 4] was 7.5 h. For the same compound, the AUC [1, 5] was 4.13 µg·h/mL, the Cmax [1, 5] was 0.254 µg/mL and the bioavailability ([1]; male, CD-1, plasma, PO 1 mg/kg vs IV 1 mg/kg, mean, read-out: F (oral bioavailability)) was 31%.
Work on `CC1(C)CC(c2ccc(Cl)cc2)=C2CN3CCN(c4ccc(C(=O)NS(=O)(=O)c5ccc(NCC6(F)CCN(C7COC7)CC6)c([N+](=O)[O-])c5)c(N5CCCOc6nc7[nH]ccc7cc65)c4)C[C@H]3COCCCO[C@@H]2C1` [Example 39, 4-((4aS,10aR)-14-(4-chlorophenyl)-12,12-dimethyl-1,2,4a,5,8,9,10a,11,13,15-decahydro-7H,12H-benzo[f]pyrazino[2,1-c][1,8]dioxa[4]azacycloundecin-3(4H)-yl)-2-(3,4-dihydro-2H-pyrrolo[3′,2′:5,6]pyrido[2,3-b][1,4]oxazepin-1(7H)-yl)-N-((4-(((4-fluoro-1-(oxetan-3-yl)piperidin-4-yl)methyl)amino)-3-nitrophenyl)sulfonyl)benzamide] yielded an EC50 (RS4;11 cells) of 0.00166 µM and an EC50 (Molt-4 cells) of 0.453 µM.
For `CO[C@H]1CC[C@H](COc2ccc(S(=O)(=O)NC(=O)c3ccc(N4CCN5CC6=C(c7ccc(Cl)cc7)CC(C)(C)C[C@H]6OCCCOC[C@@H]5C4)cc3N3CCCOc4nc5[nH]ccc5cc43)cc2Cl)OC1` [Example 40, N-((3-chloro-4-(((2R,5S)-5-methoxytetrahydro-2H-pyran-2-yl)methoxy)phenyl)sulfonyl)-4-((4aS,10aR)-14-(4-chlorophenyl)-12,12-dimethyl-1,2,4a,5,8,9,10a,11,13,15-decahydro-7H,12H-benzo[f]pyrazino[2,1-c][1,8]dioxa[4]azacycloundecin-3(4H)-yl)-2-(3,4-dihydro-2H-pyrrolo[3′,2′:5,6]pyrido[2,3-b][1,4]oxazepin-1(7H)-yl)benzamide], the EC50 (RS4;11 cells) was 0.0245 µM and the EC50 (Molt-4 cells) was > 10 µM.
For `CO[C@H]1C[C@H](CNc2ccc(S(=O)(=O)NC(=O)c3ccc(N4CCN5CC6=C(c7ccc(Cl)cc7)CC(C)(C)C[C@H]6OCCCOC[C@@H]5C4)cc3N3CCCOc4nc5[nH]ccc5cc43)cc2[N+](=O)[O-])C1` [Example 41, 4-((4aS,10aR)-14-(4-chlorophenyl)-12,12-dimethyl-1,2,4a,5,8,9,10a,11,13,15-decahydro-7H,12H-benzo[f]pyrazino[2,1-c][1,8]dioxa[4]azacycloundecin-3(4H)-yl)-2-(3,4-dihydro-2H-pyrrolo[3′,2′:5,6]pyrido[2,3-h][1,4]oxazepin-1(7H)-yl)-N-((4-((((1r,3r)-3-methoxycyclobutyl)methyl)amino)-3-nitrophenyl)sulfonyl)benzamide], the EC50 (RS4;11 cells) was 0.00393 µM and the EC50 (Molt-4 cells) was > 10 µM.
With `CC1(C)CC(c2ccc(Cl)cc2)=C2CN3CCN(c4ccc(C(=O)NS(=O)(=O)c5ccc(OCC6CCOCC6)c([N+](=O)[O-])c5)c(N5CCCOc6nc7[nH]ccc7cc65)c4)C[C@H]3COCCCO[C@@H]2C1` [Example 46, 4-((4aS,10aR)-14-(4-chlorophenyl)-12,12-dimethyl-1,2,4a,5,8,9,10a,11,13,15-decahydro-7H,12H-benzo[f]pyrazino[2,1-c][1,8]dioxa[4]azacycloundecin-3(4H)-yl)-2-(3,4-dihydro-2H-pyrrolo[3′,2′:5,6]pyrido[2,3-b][1,4]oxazepin-1(7H)-yl)-N-((3-nitro-4-((tetrahydro-2H-pyran-4-yl)methoxy)phenyl)sulfonyl)benzamide] the EC50 (RS4;11 cells) was 0.00936 µM and the EC50 (Molt-4 cells) was > 10 µM.
`CC1(C)CC(c2ccc(Cl)cc2)=C2CN3CCN(c4ccc(C(=O)NS(=O)(=O)c5ccc(OC[C@H]6CC[C@@](C)(O)CC6)c([N+](=O)[O-])c5)c(N5CCCOc6nc7[nH]ccc7cc65)c4)C[C@H]3COCCCO[C@@H]2C1` [Example 49, 4-((4aS,10aR)-14-(4-chlorophenyl)-12,12-dimethyl-1,2,4a,5,8,9,10a,11,13,15-decahydro-7H,12H-benzo[f]pyrazino[2,1-c][1,8]dioxa[4]azacycloundecin-3(4H)-yl)-2-(3,4-dihydro-2H-pyrrolo[3′,2′:5,6]pyrido[2,3-b][1,4]oxazepin-1(7H)-yl)-N-((4-(((1s,4s)-4-hydroxy-4-methylcyclohexyl)methoxy)-3-nitrophenyl)sulfonyl)benzamide] gave an EC50 (RS4;11 cells) of 0.025 µM and an EC50 (Molt-4 cells) of 0.036 µM.
